# Data as given in patent publication US20100298141A1, “SUBSTITUTED PYRIDINE N-OXIDE HERBICIDES” (E. I. DU PONT DE NEMOURS AND COMPANY, priority 2007, published 2010).
# How the values were obtained:
# giant foxtail [1] = test: Test A pre-/postemergence greenhouse test; assay type: in vivo, Setaria faberi; conditions: for Foxtail, Giant plant response rating: 0 to 100 scale
# How it was run: (§1)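 Untreated controls served as the reference for visual injury ratings taken about ten days after spraying. The non-phytotoxic solvent/surfactant formulation was applied preemergence to seeded loam and sand and postemergence to plants two to ten cm high.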
# Goosegrass = test: Test C pre-/postemergence test; assay type: in vivo, Eleusin indica; conditions: Preemergence
# How it was run: (§2)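 Test chemicals were formulated with surfactant in a non-phytotoxic solvent and sprayed both on freshly planted seeds (preemergence) and on 1- to 4-leaf plants of 2–18 cm (postemergence). Flooded-paddy pots received compound directly into 3 cm of standing water, maintained for the test.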
# umbrella sedge = test: Test C flooded paddy test; assay type: in vivo, Cyperus difformis; conditions: Flood
# How it was run: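 Greenhouse pots flooded to 3 cm above soil at time of treatment received compound via the water, which stayed at that level.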
# giant foxtail [2] = test: Test C pre-/postemergence test; assay type: in vivo, Setaria faberii; conditions: Preemergence
# How it was run: as §2
# corn = test: Test C pre-/postemergence test; assay type: in vivo, Zea mays
# How it was run: as §2
# cocklebur = test: Test C pre-/postemergence test; assay type: in vivo, Xanthium strumarium
# How it was run: as §2
# morningglory [3] = test: Test C pre-/postemergence test; assay type: in vivo, Ipomoea coccinea; conditions: Preemergence
# How it was run: as §2
# soybean = test: Test C pre-/postemergence test; assay type: in vivo, Glycine max; conditions: Preemergence
# How it was run: as §2
# downy brome = test: Test C pre-/postemergence test; assay type: in vivo, Bromus tectorum
# How it was run: as §2
# yellow nutsedge = test: Test C pre-/postemergence test; assay type: in vivo, Cyperus esculentus; conditions: Preemergence
# How it was run: as §2
# woolly cupgrass = test: Test C pre-/postemergence test; assay type: in vivo, Eriochloa villosa; conditions: Preemergence
# How it was run: as §2
# common ragweed = test: Test C pre-/postemergence test; assay type: in vivo, Ambrosia elation; conditions: Preemergence
# How it was run: as §2
# lambsquarters = test: Test C pre-/postemergence test; assay type: in vivo, Chenopodium album; conditions: 62 g ai/ha, Preemergence; scale 0 to 100
# How it was run: as §2
# johnsongrass = test: Test C pre-/postemergence test; assay type: in vivo, Sorghum halepense; conditions: Preemergence
# How it was run: as §2
# morningglory [4] = test: Test A pre-/postemergence greenhouse test; assay type: in vivo, Ipomoea spp.; conditions: for Morningglory plant response rating: 0 to 100 scale
# How it was run: as §1
# crabgrass = test: Test A pre-/postemergence greenhouse test; assay type: in vivo, Digitaria sanguinalis; conditions: for Crabgrass, Large plant response rating: 0 to 100 scale
# How it was run: as §1
# wheat = test: Test A pre-/postemergence greenhouse test; assay type: in vivo, Triticum aestivum; conditions: for Wheat plant response rating: 0 to 100 scale
# How it was run: as §1
# [5] = Postemergence, 125 g ai/ha, 0 is no effect, 100 is complete control
# [6] = Postemergence, 500 g ai/ha, 0 is no effect, 100 is complete control
# [7] = Preemergence, 125 g ai/ha, 0 no effect, 100 complete control
# [8] = Preemergence, 500 g ai/ha, 0 to 100 scale where 0 is no effect and 100 is complete control
# [9] = 31 g ai/ha, scale 0 to 100 (0 no effect, 100 complete control)
# [10] = 62 g ai/ha, Preemergence, scale 0 to 100
# [11] = Preemergence, 31 g ai/ha, scale 0 to 100 (0 no effect, 100 complete control)
# [12] = preemergence, 125 g ai/ha, scale 0 (no effect) to 100 (complete control)
compound,measurement,setting,value
Cn1nc(C(F)(F)F)c(CS(=O)(=O)c2cc(C(C)(C)C)cc[n+]2[O-])c1OC(F)F [Compound 25],"Foxtail, Giant plant response rating",giant foxtail [1]; [5],30
same,"Foxtail, Giant plant response rating",giant foxtail [1]; [6],70
same,"Foxtail, Giant plant response rating",giant foxtail [1]; [7],100
same,"Plant response rating, Foxtail, Giant",giant foxtail [1]; [8],100
same,Goosegrass plant response rating,"Goosegrass; 62 g ai/ha, scale 0 to 100",100
same,"Plant response rating, Goosegrass",Goosegrass; [9],100
same,"Plant response rating (0 to 100), Goosegrass",Goosegrass; 250 g ai/ha,100
same,"Plant response rating, Sedge, Umbrella",umbrella sedge; [9],0
same,"Plant response rating, Sedge, Umbrella","umbrella sedge; 62 g ai/ha, scale 0 to 100, 0 no effect, 100 complete control, 13 to 15 days",80
same,"Plant response rating, Sedge, Umbrella","umbrella sedge; 125 g ai/ha, scale 0 to 100, 0 no effect, 100 complete control, 13 to 15 days",80
same,"Plant response rating, Sedge, Umbrella","umbrella sedge; 250 g ai/ha, scale 0 to 100, 0 no effect, 100 complete control, 13 to 15 days",85
same,"Foxtail, Giant plant response rating","giant foxtail [2]; 62 g ai/ha, scale 0 to 100",85
same,"Plant response rating, Foxtail, Giant",giant foxtail [2]; [9],40
same,Corn plant response rating,corn; [10],20
same,"Plant response rating, Corn",corn; [11],0
same,"Plant response rating (0 to 100), Corn","corn; Preemergence, 250 g ai/ha",60
same,Corn plant response rating,corn; [12],60
same,Cocklebur plant response rating,cocklebur; [10],0
same,"Plant response rating, Cocklebur",cocklebur; [11],0
same,"Plant response rating (0 to 100), Cocklebur","cocklebur; Preemergence, 250 g ai/ha",0
same,Cocklebur plant response rating,cocklebur; [12],0
same,Morningglory plant response rating,"morningglory [3]; 62 g ai/ha, scale 0 to 100",50
same,"Plant response rating, Morningglory",morningglory [3]; [9],0
same,Soybean plant response rating,"soybean; 62 g ai/ha, scale 0 to 100",20
same,"Plant response rating, Soybean",soybean; [9],0
same,"Bromegrass, Downy plant response rating",downy brome; [10],0
same,"Plant response rating, Bromegrass, Downy",downy brome; [11],0
same,"Plant response rating (0 to 100), Bromegrass, Downy","downy brome; Preemergence, 250 g ai/ha",50
same,"Bromegrass, Downy plant response rating",downy brome; [12],0
same,"Nutsedge, Yellow plant response rating","yellow nutsedge; 62 g ai/ha, scale 0 to 100",80
same,"Plant response rating, Nutsedge, Yellow",yellow nutsedge; [9],0
same,"Cupgrass, Woolly plant response rating","woolly cupgrass; 62 g ai/ha, scale 0 to 100",60
same,"Plant response rating, Cupgrass, Woolly",woolly cupgrass; [9],40
same,"Plant response rating (0 to 100), Cupgrass, Woolly",woolly cupgrass; 250 g ai/ha,100
same,Ragweed plant response rating,"common ragweed; 62 g ai/ha, scale 0 to 100",10
same,"Plant response rating, Ragweed",common ragweed; [9],0
same,Lambsquarters plant response rating,lambsquarters,60
same,Johnsongrass plant response rating,"johnsongrass; 62 g ai/ha, scale 0 to 100",98
same,"Plant response rating, Johnsongrass",johnsongrass; [9],70
same,"Plant response rating (0 to 100), Johnsongrass",johnsongrass; 250 g ai/ha,100
same,Morningglory plant response rating,morningglory [4]; [5],10
same,Morningglory plant response rating,morningglory [4]; [6],60
same,Morningglory plant response rating,morningglory [4]; [7],0
same,"Plant response rating, Morningglory",morningglory [4]; [8],80
same,"Crabgrass, Large plant response rating",crabgrass; [5],10
same,"Crabgrass, Large plant response rating",crabgrass; [6],70
same,"Crabgrass, Large plant response rating",crabgrass; [7],90
same,"Plant response rating, Crabgrass, Large",crabgrass; [8],100
same,Wheat plant response rating,wheat; [5],0
same,Wheat plant response rating,wheat; [6],40
same,Wheat plant response rating,wheat; [7],40
same,"Plant response rating, Wheat",wheat; [8],60
